Test results published in patent US11364208B2, “Topical compositions” (DSM IP ASSETS B.V., priority 2017, dated 2022).

Columns and labels:
[1] = system: Malassezia furfur; assay: Antimicrobial efficacy in analogy to challenge test NF EN ISO11930, Malassezia furfur; assay type: cell-based; details: for Δ (change of microorganism count t = 0 h to t = 24): 24 h, 0.5 wt.-% of each active; for Δ (change of microorganism count t = 0 h to t = 24) / Malassezia furfur colony count: 22° C., initial count 3300 cfu/ml; for Malassezia furfur colony count: 24 h after contamination, physiological serum 0.85 wt.-% NaCl, 0.5 wt.-% of each active (0.5 wt.-% Erythrulose corresponds to 0.4 wt.-% of active)
Description: (§1) The wells were contaminated with Malassezia furfur, Propionibacterium acnes, respectively Aspergillus brasiliensis to obtain the initial contamination as outlined in table 1, 2 and 3. […] The counting of the (remaining) population was carried out 24 h after contamination.

[2] = system: Aspergillus brasiliensis; assay: Antimicrobial efficacy in analogy to challenge test NF EN ISO11930, Aspergillus brasiliensis; assay type: cell-based; details: 24 h, 22° C.; for Aspergillus brasiliensis colony count: initial count 10000 cfu/ml
Description: as §1
(The term “Log reduction” is a well-known mathematical term used to show the relative number of cells, germs, microbes, etc., reduced in or on something, e.g. a 2 log reduction means the number of microbes is 100 times smaller and a 3 log reduction means the number of microbes is 1000 times smaller).

[3] = 0.5 wt.-% Erythrulose (corresponds to 0.4 wt.-% of active)
[4] = 0.4 wt.-% p-Hydroxyacetophenone

| SMILES | Δ (change of microorganism count t = 0 h to t = 24) [1] | Malassezia furfur colony count [1] [cfu/ml] | anti-fungal effect against Malassezia furfur (in words) ([1]; concentration of 0.5%) | Log step reduction [2, 3] | Aspergillus brasiliensis colony count [2, 3] [cfu/ml] | Log step reduction [2, 4] | Aspergillus brasiliensis colony count [2, 4] [cfu/ml] |
| --- | --- | --- | --- | --- | --- | --- | --- |
| O=C(CO)[C@@H](O)CO [Erythrulose, L-(+)-Erythrulose] | ±0% | 3300 | does not exert any anti-fungal effect | 2 | 100 | – | – |
| CC(=O)c1ccc(O)cc1 [p-Hydroxyacetophenone, 1-(4-hydroxyphenyl)-ethanone] | −83% | 550 | – | – | – | 2 | 100 |
